{"source": "patent US10226493B2", "about": "“Coriolus versicolor extracts, methods of preparation and uses thereof” (priority 2010, dated 2019)", "test_system": "herpes simplex virus (HSV)", "experiment": "HSV infection in mice, disease severity by hind-limb paralysis score", "assay_type": "in vivo", "conditions": "male BALB/c mice, ip once a day; MPUB-EtOH 250 mg/kg, acyclovir 10 mg/kg; versus DMSO-treated controls; FIG. 10", "description": "To investigate the antiviral effects of C. versicolor extract in vivo, 3-week-old male BALB/c mice (15 mice per group) were administrated intraperitoneally (ip) with dimethyl sulfoxide (DMSO) (solvent for MPUB-EtOH) or MPUB-EtOH (250 mg/kg) once a day at 24 hr intervals for […].\nBriefly, the mice were infected with inoculation of HSV ip at 1×10^5 TCID50/ml at day 0. DMSO, MPUB-EtOH or acyclovir (10 mg/kg) were administrated ip once a day at 24 hr intervals for 5 days starting 1 hr after infection. The mice were inspected daily and the disease severity was measured by hind-limb(s) paralysis based on the following scoring system: 0, no paralysis; 1, obvious difficulty in movement of hind limbs; 2, one hind limb incomplete paralysis; 3, one hind limb complete paralysis; 4, both hind limbs incomplete paralysis; 5, both hind limbs complete paralysis.", "data": [{"smiles": "Nc1nc2c(ncn2COCCO)c(=O)[nH]1", "note": "[acyclovir]", "values": [{"measurement": "severity of HSV infection (hind-limb paralysis score 0-5)", "result": "comparable"}]}]}
